# Measured values taken from patent publication US20250019387A1 (Frontier Medicines Corporation, priority 0001, published 2025).
# pIC50: −log10 of the molar value.
# Target: KRAS G12C and cRAF (Ras-binding domain) interaction (Homo sapiens (Human), UniProt P01116, C118S/C51S/C80L/G12C)
# Test: Inhibition of KRAS G12C and cRAF binding (AlphaScreen)
# Conditions: GMPPNP-loaded KRAS G12C, 19-20 hours incubation with compound; read-out: IC50 (Inhibition of KRAS G12C and cRAF Binding)
# Outline: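 Compounds (DMSO) preincubated 19-20 h at room temperature, then RBD with streptavidin donor and glutathione acceptor beads added in 25 mM Hepes pH 7.4, 150 mM NaCl, 5 mM MgCl2, 0.01% Triton X-100, 2% DMSO for 60-90 min. Emission 570 nm (excitation 680 nm); IC50 by 4-parameter fit. Counter-screen used biotin-AviTag-GST instead of RBD.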
# KRAS G12C and cRAF (Ras-binding domain) interaction, sequence (P01116 other isoform, or with tags, fused parts or gaps G12C/C51S/C80L/C118S): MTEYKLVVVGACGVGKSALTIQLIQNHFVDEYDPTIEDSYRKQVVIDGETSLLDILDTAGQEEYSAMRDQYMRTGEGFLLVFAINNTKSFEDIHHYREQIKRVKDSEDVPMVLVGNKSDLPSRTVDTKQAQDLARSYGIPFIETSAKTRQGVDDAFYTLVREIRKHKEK
row,SMILES,pIC50
1,"C=CC(=O)N1CC[C@@H](N(C)c2nc(OC[C@]34CCCN3C[C@@H](F)C4)nc3c(F)c(-c4cccc5ccc(F)c(Cl)c45)ncc23)C1 [Example 151, 1-((R)-3-((7-(8-chloro-7-fluoronaphthalen-1-yl)-8-fluoro-2-(((2S,7aR)-2-fluorohexahydro-1H-pyrrolizin-7a-yl)methoxy)pyrido[4,3-d]pyrimidin-4-yl)(methyl)amino)pyrrolidin-1-yl)prop-2-en-1-one]",< 6.30
2,"CN1CC(C)(C#CC(=O)N2CC[C@@H](N(C)c3nc(OC[C@@]45CCCN4C[C@H](F)C5)nc4c(F)c(-c5cccc6cccc(Cl)c56)ncc34)C2)C1 [Example 242, 1-((R)-3-((7-(8-chloronaphthalen-1-yl)-8-fluoro-2-(((2R,7aS)-2-fluorohexahydro-1H-pyrrolizin-7a-yl)methoxy)pyrido[4,3-d]pyrimidin-4-yl)(methyl)amino)pyrrolidin-1-yl)-3-(1,3-dimethylazetidin-3-yl)prop-2-yn-1-one]",> 8.00
3,"COC(=O)/C=C\C(=O)N1CCC(N(C)c2nc(OC[C@@H]3CCCN3C)nc3c2CCN(c2cccc4cccc(Cl)c24)C3)C1 (stereo partly drawn) [Example 7, methyl (Z)-4-(3-((7-(8-chloronaphthalen-1-yl)-2-(((S)-1-methylpyrrolidin-2-yl)methoxy)-5,6,7,8-tetrahydropyrido[3,4-d]pyrimidin-4-yl)(methyl)amino)pyrrolidin-1-yl)-4-oxobut-2-enoate]",< 6.30
4,"C#Cc1c(F)ccc2cccc(-c3ncc4c(N(C)[C@@H]5CCN(C(=O)/C=C/CN6CC[C@H](F)C6)C5)nc(OC[C@@]56CCCN5C[C@H](F)C6)nc4c3F)c12 [Example 288, (E)-1-((R)-3-((7-(8-ethynyl-7-fluoronaphthalen-1-yl)-8-fluoro-2-(((2R,7aS)-2-fluorotetrahydro-1H-pyrrolizin-7a(5H)-yl)methoxy)pyrido[4,3-d]pyrimidin-4-yl)(methyl)amino)pyrrolidin-1-yl)-4-((S)-3-fluoropyrrolidin-1-yl)but-2-en-1-one]",7.00 to 8.00
5,"C=CS(=O)(=O)[C@H]1C[C@H](N(C)c2nc(OC[C@@H]3CCCN3C)nc3c2CCN(c2cccc4cccc(Cl)c24)C3)C1 [Example 48, 7-(8-chloronaphthalen-1-yl)-N-methyl-2-(((S)-1-methylpyrrolidin-2-yl)methoxy)-N-((1r,3S)-3-(vinylsulfonyl)cyclobutyl)-5,6,7,8-tetrahydropyrido[3,4-d]pyrimidin-4-amine]",6.30 to 7.00
6,"COC(=O)/C=C/C(=O)N1CC[C@@H](N(C)c2nc(OC[C@@H]3CCCN3C)nc3c2CCN(c2cccc4cccc(Cl)c24)C3)C1 [Example 10, methyl(E)-4-((R)-3-((7-(8-chloronaphthalen-1-yl)-2-(((S)-1-methylpyrrolidin-2-yl)methoxy)-5,6,7,8-tetrahydropyrido[3,4-d]pyrimidin-4-yl)(methyl)amino)pyrrolidin-1-yl)-4-oxobut-2-enoate]",7.00 to 8.00
7,"C=CS(=O)(=O)CCN(C)c1nc(OCC23CCCN2CCC3)nc2c1CCN(c1cccc3cccc(Cl)c13)C2 [Example 49, 7-(8-chloronaphthalen-1-yl)-2-((hexahydro-1H-pyrrolizin-7a-yl)methoxy)-N-methyl-N-(2-(vinylsulfonyl)ethyl)-5,6,7,8-tetrahydropyrido[3,4-d]pyrimidin-4-amine]",> 8.00
8,"CC(C)c1noc(/C=C/C(=O)N2CC(CN(C)c3nc(OC[C@@]45CCCN4C[C@H](F)C5)nc4c(F)c(-c5cccc6cccc(Cl)c56)ncc34)C2)n1 [Example 106, (E)-1-(3-(((7-(8-chloronaphthalen-1-yl)-8-fluoro-2-(((2R,7aS)-2-fluorotetrahydro-1H-pyrrolizin-7a(5H)-yl)methoxy)pyrido[4,3-d]pyrimidin-4-yl)(methyl)amino)methyl)azetidin-1-yl)-3-(3-isopropyl-1,2,4-oxadiazol-5-yl)prop-2-en-1-one]",7.00 to 8.00
9,"C=CC(=O)N1CC[C@@H](N(C)c2nc(OC[C@@]34CCCN3C[C@H](F)C4)nc3c(F)c(-c4cccc5cccc(C6CC6)c45)ncc23)C1 [Example 304, 1-((R)-3-((7-(8-cyclopropylnaphthalen-1-yl)-8-fluoro-2-(((2R,7aS)-2-fluorotetrahydro-1H-pyrrolizin-7a(5H)-yl)methoxy)pyrido[4,3-d]pyrimidin-4-yl)(methyl)amino)pyrrolidin-1-yl)prop-2-en-1-one]",< 6.30
10,"C=CC(=O)N1CC[C@@H](N(C)c2nc(OC[C@@]34CCCN3C[C@H](F)C4)nc3c(F)c(-c4cccc5ccc(F)c(CC)c45)ncc23)C1 [Example 185, 1-((R)-3-((7-(8-ethyl-7-fluoronaphthalen-1-yl)-8-fluoro-2-(((2R,7aS)-2-fluorotetrahydro-1H-pyrrolizin-7a(5H)-yl)methoxy)pyrido[4,3-d]pyrimidin-4-yl)(methyl)amino)pyrrolidin-1-yl)prop-2-en-1-one]",6.30 to 7.00
11,"CN(c1nc(OC[C@@]23CCCN2C[C@H](F)C3)nc2c(F)c(-c3cccc4cccc(Cl)c34)ncc12)[C@@H]1CCN(C(=O)C#C[C@]2(C)CCCN2C)C1 [Example 193, 1-((R)-3-((7-(8-chloronaphthalen-1-yl)-8-fluoro-2-(((2R,7aS)-2-fluorohexahydro-1H-pyrrolizin-7a-yl)methoxy)pyrido[4,3-d]pyrimidin-4-yl)(methyl)amino)pyrrolidin-1-yl)-3-((S)-1,2-dimethylpyrrolidin-2-yl)prop-2-yn-1-one]",7.00 to 8.00

# Same assay, conditions: additional exemplary compounds; KRAS G12C and cRAF binding; read-out: RAF1 RBD IC50
row,SMILES,pIC50
1,Cc1nccc(/C=C/C(=O)N2C3CC2CN(c2nc(OC[C@@]45CCCN4C[C@H](F)C5)nc4c(F)c(-c5cccc6cccc(Cl)c56)ncc24)C3)n1,< 6.30
2,C#Cc1c(F)ccc2cccc(-c3ncc4c(N(C)[C@@H]5CCN(C(=O)/C=C/c6ccncc6)C5)nc(OC[C@@]56CCCN5C[C@H](F)C6)nc4c3F)c12,< 6.30
3,C=CC(=O)N1CC[C@@H]1CN(C)c1nc(OC[C@@]23CCCN2C[C@H](F)C3)nc2c(F)c(-c3cccc4cccc(Cl)c34)ncc12,< 6.30
4,COC/C=C/S(=O)(=O)CCN(C)c1nc(OCC23CCCN2CCC3)nc2c1CCN(c1cccc3cccc(Cl)c13)C2,6.30 to 7.00
5,C=CC(=O)N1C[C@H](N(C)c2nc(OC[C@@]34CCCN3C[C@H](F)C4)nc3c(F)c(-c4cccc5cccc(Cl)c45)ncc23)CC1C#N (stereo partly shown),7.00 to 8.00
6,C=CC(=O)N1C[C@@H](N(C)c2nc(OCC34CCCN3CCC4)nc3c2CCN(c2cccc4cccc(Cl)c24)C3)C[C@@H]1CC#N,< 6.30
7,Cc1nccc(/C=C/C(=O)N2CC3(C2)CN(c2nc(OC[C@@]45CCCN4C[C@H](F)C5)nc4c(F)c(-c5cccc6cccc(Cl)c56)ncc24)C3)n1,< 6.30
8,C=CC(=O)N1CCC(N(c2nc(OC[C@@]34CCCN3C[C@H](F)C4)nc3c2CCN(c2cccc4cccc(Cl)c24)C3)C2CC2)C1 (stereo partly shown),< 6.30
9,CCN(CC)C/C=C/S(=O)(=O)CCN(C)c1nc(OCC23CCCN2CCC3)nc2c(F)c(-c3cccc4cccc(Cl)c34)ncc12,> 8.00
10,C=CC(=O)N1C[C@@H](F)[C@@H](N(C)c2nc(OC[C@@]34CCCN3C[C@H](F)C4)nc3c(F)c(-c4cccc5cccc(Cl)c45)ncc23)C1,< 6.30
11,C=CC(=O)N1CC[C@@H](N(C)c2nc(OC[C@@]34CCCN3C[C@H](F)C4)nc3c(F)c(-c4cccc5c(Cl)cc(F)cc45)ncc23)C1,< 6.30
